# Results as given in patent publication US20230151057A1, “LACTIC ACID BACTERIA GROWTH PROMOTER” (Asahi Group Holdings, Ltd., priority 2020, published 2023).
# System: Lactobacillus gasseri (FERM BP-11331)
# Assay: Growth-promoting effect on Lactobacillus gasseri in modified MRS medium (particle count)
# Type: cell-based
# Conditions: Example 1; peptide 0.25 mg/mL, 37° C., 18 hours, inoculum 1.0×10^7 cells/mL
# Source text: Nitrogen sources in MRS medium were reduced to find a medium composition that achieves a total bacterial count of about 1.0×10^8 cell/mL to 1.0×10^9 cell/mL after culturing of each of the six bacterial strains Lactobacillus gasseri (FERNM BP-11331), Lactobacillus acidophilus (FERM BP-4981), Lactobacillus amylovorus (FERM BP-11255), Lactobacillus curvatus (NITE P-02033), Lactobacillus plantarum, and Lactobacillus brevis. This composition, named “modified MRS medium”, was used for the evaluation. Here, for the composition of the MRS medium, a composition described in a medium catalog provided by BD (Becton, Dickinson and Company) was used as a reference. The compositions of the MRS medium and the modified MRS medium are as follows. By chemical synthesis, 28 kinds of candidate peptides having the sequences shown below were provided. Each candidate peptide was added to the modified MRS medium at 0.25 mg/mL to provide a medium to be evaluated. The lactic acid bacterium Lactobacillus gasseri was inoculated at 1.0×10^7 cells/mL to the provided medium to be evaluated, and culture was carried out at a temperature of 37° C. for a culture period of 18 hours. The resulting culture was collected, and subjected to measurement of the particle concentration (particles/mL) as a characteristic value that can be used as an index of the bacterial cell growth, using a particle count analyzer (CDA-1000, Sysmex). The rate of increase (%) was calculated relative to a control value obtained using a medium to which no peptide was added, which was taken as 100%. Using the dipeptide LF (Leu-Phe) and an equimolar mixture of leucine (L) and phenylalanine (F), culture was carried out in the same manner as in Example 1, and the growth-promoting effects of the dipeptide and the amino acid mixture on the lactic acid bacterium were evaluated. Using a dipeptide (LF) as the peptide, the growth-promoting effect on a lactic acid bacterium was evaluated in the same manner except that the concentration of the dipeptide added was 0.1 mg/mL, 0.25 mg/mL, or 1.0 mg/mL.
row,Substance,Particle concentration
1,HDDKHIIVD (listed as Saccharomyces cerevisiae) [His-Asp-Asp-Lys-His-Ile-Ile-Val-Asp],2.25e+08 mL⁻¹
2,Ile-Phe [IF],2.01e+08 mL⁻¹
3,Ile-Pro-Gln [IPQ],1.82e+08 mL⁻¹
4,Ile-Pro-Gly-Ile (IPGI; listed as Saccharomyces cerevisiae),2.19e+08 mL⁻¹
5,Ile-Pro-Ile-Gln (IPIQ; listed as Saccharomyces cerevisiae),2.11e+08 mL⁻¹
6,Ile-Pro-Thr [IPT],1.79e+08 mL⁻¹
7,Ile-Val-Glu [IVE],1.81e+08 mL⁻¹
8,Leu-Pro-Gln [LPQ],1.97e+08 mL⁻¹
9,Leu-Pro-Leu-Gly (LPLG; listed as Saccharomyces cerevisiae),2.2e+08 mL⁻¹
10,Leu-Pro-Thr [LPT],1.9e+08 mL⁻¹
11,Leu-Pro-Val-Leu (LPVL; listed as Saccharomyces cerevisiae),2.07e+08 mL⁻¹
12,Leu-Val-Glu [LVE],1.96e+08 mL⁻¹
13,PNVLPETE (listed as Saccharomyces cerevisiae) [Pro-Asn-Val-Leu-Pro-Glu-Thr-Glu],2e+08 mL⁻¹
14,Phe-Leu [FL],1.98e+08 mL⁻¹
15,SEYPPLG (listed as Saccharomyces cerevisiae) [Ser-Glu-Tyr-Pro-Pro-Leu-Gly],2.36e+08 mL⁻¹
16,Val-Pro-Ile [VPI],2.11e+08 mL⁻¹
17,Val-Pro-Leu [VPL],2.01e+08 mL⁻¹
18,Val-Pro-Val-Gly (VPVG; listed as Saccharomyces cerevisiae),1.76e+08 mL⁻¹
19,WDESRFQ (listed as Saccharomyces cerevisiae) [Trp-Asp-Glu-Ser-Arg-Phe-Gln],2.38e+08 mL⁻¹

# Same assay, conditions: Example 1; peptide 0.25 mg/mL, 37° C., 18 hours; control without peptide = 100%
row,Substance,Rate of increase
1,HDDKHIIVD (listed as Saccharomyces cerevisiae) [His-Asp-Asp-Lys-His-Ile-Ile-Val-Asp],114%
2,Ile-Phe [IF],114%
3,Ile-Pro-Gln [IPQ],99%
4,Ile-Pro-Gly-Ile (IPGI; listed as Saccharomyces cerevisiae),119%
5,Ile-Pro-Ile-Gln (IPIQ; listed as Saccharomyces cerevisiae),115%
6,Ile-Pro-Ile-Thr (IPIT; listed as Saccharomyces cerevisiae),121%
7,Ile-Pro-Thr [IPT],98%
8,Ile-Val-Glu [IVE],96%
9,Leu-Pro-Gln [LPQ],107%
10,Leu-Pro-Leu-Gly (LPLG; listed as Saccharomyces cerevisiae),120%
11,Leu-Pro-Thr [LPT],104%
12,Leu-Pro-Val-Leu (LPVL; listed as Saccharomyces cerevisiae),113%
13,Leu-Val-Glu [LVE],104%
14,PNVLPETE (listed as Saccharomyces cerevisiae) [Pro-Asn-Val-Leu-Pro-Glu-Thr-Glu],101%
15,Phe-Leu [FL],112%
16,SEYPPLG (listed as Saccharomyces cerevisiae) [Ser-Glu-Tyr-Pro-Pro-Leu-Gly],119%
17,Val-Pro-Ile [VPI],112%
18,Val-Pro-Leu [VPL],107%
19,Val-Pro-Val-Gly (VPVG; listed as Saccharomyces cerevisiae),102%
20,WDESRFQ (listed as Saccharomyces cerevisiae) [Trp-Asp-Glu-Ser-Arg-Phe-Gln],120%
